From patent US20110257251A1, “TELOMERASE INHIBITORS AND METHODS OF USE THEREOF” (PRESIDENTS AND FELLOWS OF HARVARD COLLEGE, priority 2008, published 2011) come the findings set out here.

Data set [1] relates to full-length hTR. The experiment in a line: Fluorescence polarization binding to full-length hTR. Also on record: species or system human. As to conditions: for affinity for full-length hTR (in words): FP; for Kd: full-length hTR construct, SEQ ID NO: 1 variants, read-out: Kp from FP. The source says:
To assess and quantify the ability of the RIPtide hits from microarray screening to bind the target RNA in solution, a panel of RIPtides representing variations on the consensus sequences of top hits within each cluster was selected. These RIPtides were synthesized with a 3-carboxyfluorescein (FAM) label attached to the 3′-end, the same as had been attached to the surface of the microarray. Fluorescence polarization (FP) was then used to measure quantitatively the equilibrium dissociation constant (Kd) values of the FAM-labeled RIPtides, using the same folded target RNAs and buffer system as had been employed in the microarray screen.
It is possible, without wishing to be limited by a theory, that RIPtide binding sites present or available in truncated forms of hTR may not be present or available in full-length hTR. Five RIPtides were therefore selected that had been validated for binding PKWT-1 in solution, and their binding affinity to full-length hTR was measured using FP. […] Were the J2b/3 loop involved in tertiary interactions in hTR, RIPtide binding might have been lost, and therefore it was surmised that the loop remains relatively unengaged in such interactions when present in naked hTR.
The remainder of the RIPtide hits from primary microarray screens of PK123 and PK159 in solution were not validated, but instead validation using full-length hTR was analyzed. Representative examples from each of the clusters were selected (FIG. 4D) and the binding affinity of these RIPtides for full-length hTR was quantified (FIG. 6A). In this way, RIPtides from clusters III, IV and V that bind full-length hTR were identified. Taken together, the collection of hTR-validated RIPtides maps out a series of sites on the template/pseudoknot that are especially conducive to targeting by a 2′-O-methyl polyribonucleotide; with each site corresponding to a cluster of sequence-complementary RIPtides (FIG. 6B, shaded according to sequence in FIG. 6A). Specifically, these hyper-targetable regions are the J2b/3 loop and P3 stem (Cluster II), the J2a/2b bulge through part of the P2a stem (Cluster III), the J2a/3 loop (Cluster IV), and the Template region (Cluster V).
FAM (6-carboxyfluorescein)-labeled oligonucleotides were synthesized on a 3′-(6-Fluorescein) CPG support (Glen Research) using a MerMade 12 (BioAutomation) DNA synthesizer, purified with Poly Pak-II (Glen Research) cartridges, and compositionally verified by MALDI-TOF MS. Unlabeled full length hTR was prepared by in vitro transcription in the presence of T7 RNA polymerase under the conditions described earlier for RIPtide screening, but without aminoallyl-UTP addition. After DNase I treatment and ethanol precipitation, hTR was purified using the RNeasy Midi kit (Qiagen). Unlabeled PKWT and PKWT-1 were purchased from Dharmacon, and were PAGE-purified and desalted. FAM-labeled RIPtides (5 nM) were titrated with increasing concentrations of folded RNA (300 pM-3 μM, typically). Solutions containing RIPtide and RNA were incubated at 37° C. for 2 h, after which fluorescence polarization was recorded at room temperature using a SpectraMax M5 (Molecular Devices) plate reader. Polarization (expressed in millipolarization units) was monitored at […] (cutoff 515 nm). […] Dissociation constants were determined using Kaleidagraph 3.5 (Synergy Software). […]

Data set [2] relates to telomerase ribonucleoprotein complex. Put plainly: TRAP assay in cell extracts (HeLa, DU145, HEK293). Type of data set: biochemical, human. As to conditions: for IC50 in TRAP (in words): cell extracts (HeLa, DU145, HEK293). The source says: Having discovered a panel of RIPtides that bind four different regions on the naked RNA component of telomerase, it was next determined whether these molecules were capable of inhibiting the activity of the telomerase ribonucleoprotein complex in an in vitro setting. The Telomeric Repeat Amplification Protocol (TRAP) assay (Kim, N. W. et al., Science 266, 2011-2015 (1994)) was therefore employed. The TRAP assay is a PCR-based protocol that has found widespread use in determining telomerase activity in human cell extracts and also in evaluating the in vitro potency of telomerase inhibitors. Using a version of the TRAP assay (Cy5-TRAP) that utilizes fluorescence detection (Herbert, B.-S. et al., Nat. Protocols 1, 1583-1590 (2006)). IC50 values for several RIPtides were determined using cell extracts from two human tumor cell lines (HeLa and DU145) and an immortalized embryonic cell line (HEK293). Initially, a small library of RIPtides representing several clusters identified in the microarray screen was screened and validated by FP experiments on hTR, using telomerase activity present in HeLa cell extracts. The majority of these were 8-mers, but some 7-mers and 6-mers were also tested; all were fully complementary to the target hTR sequence with Kd's for hTR below 300 nM. Several phosphorothioate variations of the initial library were additionally tested, incorporating phosphorothioate linkages either at the two terminal positions of the RIPtide or at every position.
Inhibition of telomerase activity in vitro was determined using TRAP, a PCR-based assay for telomerase activity in cell extracts (B.-S. Herbert, Nat. Protocols, 1, 1583-1590 (2006)). Unlabeled oligonucleotide sequences found to bind by FP were pre-incubated with cell extracts (HeLa, DU 145, and 293), and activity was measured by TRAP.
RIPtides were synthesized, purified with PolyPak-II C18 reverse phase cartridges, and constitutionally verified by MALDI-TOF MS. Telomerase-positive cells were either purchased from ATCC (DU145 and HEK293) or provided in the Chemicon TRAP kit (HeLa). Cell extracts were prepared from cell pellets by detergent lysis with 1×CHAPS lysis buffer (Chemicon). RIPtides were incubated with cell extract for 1 h at 37° C. prior to the TRAP assays. Assays were performed following a protocol that uses fluorescence as a quantitation system, as previously described by Herbert et al. (Nat. Protocols 1, 1583-1590 (2006)). Briefly, extension of a fluorescent artificial substrate by telomerase was carried out for 30 minutes at 30° C., followed by amplification with 30 PCR cycles ([…] 30 s, 59° C. 30 s, 72° C. 1 min). Telomerase extension products were separated on 10% native PAGE gels, and bands were visualized by fluorescence imaging and quantified using ImageQuant™ (GE Healthcare). Concentrations of RIPtides ranged from 0.6 nM to 60 μM, and for the initial screening, experiments were performed in duplicate using HeLa cell extracts. For active RIPtides, experiments were repeated using DU145 (prostate cancer) and HEK293 cell extracts. Several controls were included in the design of the experiments: a positive control (untreated cell lysate), negative controls (buffer only, heat inactivated and RNase treated cell extracts), and PCR amplification control (60 μM of RIPtide added after telomerase elongation and before PCR step). For cell-based TRAP assays, DU145 cells were transfected with 0.2% Lipofectamine™ 2000 (Invitrogen) and 165 nM RIPtide for a period of 24 h. Cells were harvested, counted, lysed with 1×CHAPS lysis buffer and normalized by total protein concentration as determined by the Bradford assay. Assays were performed in triplicate as described above.
The inhibitory potential of the RIPtides was initially assessed in HeLa cell extracts, in duplicate experiments, using a 600 pM-60 μM concentration range. Experiments with selected RIPtides were repeated for a concentration range of 0.6 pM-60 μM. […]

In data set [3] the test system is telomerase activity in DU145 cells. Put plainly: Cell-based TRAP assay in transfected DU145 cells. Also on record: species or system human. The note with it: 165 nM RIPtide, 24 h, Lipofectamine 2000, then TRAP. On the procedure:
Having established that the modified RIPtides retain activity in vitro, several of these were tested in cell-based assays. DU145 prostate cancer cells were treated with 165 nM RIPtide for 24 h. The cells were subsequently lysed and telomerase activity was assessed by the TRAP assay (FIG. 8D). As a positive control, a previously reported 13-mer 2′-O-methyl oligonucleotide targeting the template region of hTR was employed (Pitts, A. E., Corey, D. R., Proc. Natl. Acad. Sci. USA 95, 11549-111554 (1998)). Lipofectamine™ was used to ensure optimal delivery, and it remains to be established whether cationic lipid delivery is necessary for 10-mers. In particular, there is evidence that relatively short oligonucleotides containing phosphorothioate linkages targeting telomerase show optimal cellular uptake properties (Chen, Z., et al., J. Med. Chem. 45, 5423-5425 (2002)).
RIPtides were synthesized, purified with PolyPak-II C18 reverse phase cartridges, and constitutionally verified by MALDI-TOF MS. Telomerase-positive cells were either purchased from ATCC (DU145 and HEK293) or provided in the Chemicon TRAP kit (HeLa). Cell extracts were prepared from cell pellets by detergent lysis with 1×CHAPS lysis buffer (Chemicon). RIPtides were incubated with cell extract for 1 h at 37° C. prior to the TRAP assays. Assays were performed following a protocol that uses fluorescence as a quantitation system, as previously described by Herbert et al. (Nat. Protocols 1, 1583-1590 (2006)). Briefly, extension of a fluorescent artificial substrate by telomerase was carried out for 30 minutes at 30° C., followed by amplification with 30 PCR cycles ([…] 30 s, 59° C. 30 s, 72° C. 1 min). Telomerase extension products were separated on 10% native PAGE gels, and bands were visualized by fluorescence imaging and quantified using ImageQuant™ (GE Healthcare). […] Cells were harvested, counted, lysed with 1×CHAPS lysis buffer and normalized by total protein concentration as determined by the Bradford assay. […]

Data set [4] relates to mutated full length hTR. Put plainly: Fluorescence polarization compensatory mutation study with mutated full-length hTR. The class given is binding, human. The note with it: mutant RIPtide and mutant hTR. The source says: Without wishing to be limited or constrained by theory, the RIPtide binding sites on hTR had been inferred assuming Watson-Crick complementarity between the RIPtide and target. To verify experimentally that the RIPtides were actually recognizing the predicted regions on hTR, tandem point mutations were introduced into the central portion of the RIPtides and compensatory sequence changes into hTR. The binding behavior of the “wild type” and “mutant” RIPtides to wild-type and compensatory mutant hTR targets was analyzed by FP (FIG. 7). Four different hTR transcripts were generated in which two consecutive nucleotides at the central position of each cluster, the expected target site (FIG. 6A, bases indicated in bold), were mutated to their Watson-Crick complementary bases (G→C, C→G and U→A). […] Similarly, binding was abolished or reduced when mutated RIPtides were incubated with wild-type hTR (FIG. 7C). […] Perhaps this lack of restoration in certain cases reflects a local change in the availability or in the folding energy of the single-stranded elements as a result of the mutation. Taken together, this mutational specificity supports the notion, without wishing to be bound by theory, that the RIPtides indeed target telomerase at the corresponding sequence-complementary sites.
For mapping of hTR-RIPtide binding sites, site-directed mutagenesis on the pRc/CMV plasmid (Collins lab, UC Berkeley) was performed using a QuickChange-XL mutagenesis kit (Stratagene) and confirmed by sequencing. Full-length hTR transcripts incorporating two consecutive base mutations (to their Watson-Crick complementary bases) were generated for fluorescence polarization studies.
(Polarisation of emitted light reports the rotation of a fluorescent probe.)

The mark [5] stands for this setting: cell extracts (HeLa, DU 145, and 293), SEQ ID NO: 1 variants, read-out: IC50 from TRAP.

Read-outs that look alike come from different tables or passages of the source. Strand notation (5' to 3'): a small letter for the sugar, then the base; units joined by * are phosphorothioate-linked, units joined directly phosphodiester-linked; [ ] holds rarer units or linkages, { } end groups; capitals alone tell only the bases. m = 2'-O-methyl

Consider “5′-GCCUCCAG-3′ (chemistry not given here) [SEQ ID NO: 1]”, for which the “affinity for full-length hTR (in words)” value in data set [1] is listed as “confirmed”. The “telomerase inhibition in TRAP assays (in words)” value in data set [2] (cell extracts) is listed as “showing inhibition of activity”. For the same substance, the “IC50 in TRAP (in words)” value in data set [2] is on record as “micromolar range”. For “5′-GGUGGAAGGC-3′ (2'-O-methyl sugars, as printed in the source, key not given here) [IV-3]”, the “telomerase inhibition in cultured cells” value in data set [3] is “no significant telomerase inhibition”. The “IC50 in TRAP (in words)” value in data set [2] is on record as “low nanomolar range”.

As for “AGUUAGG (all 2'-O-methyl, backbone not given here) [V-3]”, the “restoration of binding with compensatory mutations in both RIPtide and hTR” value in data set [4] was “restoration was observed”. Same read-out and setting: in the case of “CAGCGAGA (all 2'-O-methyl, backbone not given here) [II-1]” it was “Restoration was not observed”. For orientation: IC50 means the concentration that inhibits the measured activity by half. Consider “G*C*C*U*C*C*A*G (mG*mC*mC*mU*mC*mC*mA*mG) [G*C*C*U*C*C*A*G LNA]”, for which, in data set [2] (setting [5]), the IC50 was ~6 µM. Consider “G*CCUCCA*G (mG*mCmCmUmCmCmA*mG; further chemistry not given here)”, for which the Kd in data set [1] was 37.3 ± 15.2 nM. In the case of G*CCUCCAG (mG*mCmCmUmCmCmAmG), the Kd in data set [1] was found to be 8.8 ± 2.5 nM. For the same substance, the IC50 in data set [2] (setting [5]) was ~9 µM. As to GCCUCCA*G (mGmCmCmUmCmCmA*mG), the Kd in data set [1] was found to be 8.9 ± 5.6 nM. Moreover, the IC50 in data set [2] (setting [5]) was ~16 µM.

With “GGUGCCAGGC (all 2'-O-methyl, backbone not given here; further chemistry not fully specified) [IV-3 mismatch, reference compound]”, the “telomerase inhibition in cultured cells” value in data set [3] is reported as “abolished inhibition”. As for “GGUGGAAGGC (as printed in the source, key not given here)”, in data set [2] (cell extracts, in vitro, read-out: IC50, telomerase inhibition in TRAP), the IC50 is ~0.001 µM. As to “GGUGGAAGGC (as printed in the source, key not given here) [IV-4]”, the “IC50 in TRAP (in words)” value in data set [2] is reported as “low nanomolar range”. Regarding “GGUGGAAGGC (as printed in the source, key not given here) [IV-5]”, the “telomerase inhibition in cultured cells” value in data set [3] is “marked inhibition”. Consider “GUCAGCGA (all 2'-O-methyl, backbone not given here) [II-2]”, for which the “restoration of binding with compensatory mutations in both RIPtide and hTR” value in data set [4] is given as “restoration was observed”. Besides, the “affinity for full-length hTR (in words)” value in data set [1] is recorded as “improvement in affinity”.
